In brackets after ≈: the same amount, converted by molar mass.

Common to all, as to format: in vivo
In experiment [1] the test system is Mexican bean beetle (Epilachna varivestis, Muls.). Kind of experiment: Mexican Bean Beetle Leaf Spray Test. Particulars: 72 h, 3 days, read-out: Insect LD50, Beetle. The method, then: (§1) Suspensions of the test compouns were prepared by dissolving one gram of compound in 50 milliliters of acetone in which had been dissolved 0.1 gram (10 percent of the weight of compound) of an alkylphenoxy polyethoxyethanol surfactant, as an emulsifying or dispersing agent. The resulting solution was mixed into 150 milliliters of water to give roughly 200 milliliters of a suspension containing the compound in finely divided form. The thus-prepared stock suspension contained 0.5 percent by weight of compound. The test concentrations in parts per million by weight employed in the tests described hereinbelow were obtained by appropriate dilutions of the stock suspension with water. The test procedures were as follows:
Mexican Bean Beetle Leaf Spray Test
Fourth instar lavae of the Mexican bean beetle (Epilachna varivestis, Muls.), reared on Tendergreen bean plants at a temperature of 80°±5° F. and 50±5 per cent relative humidity, were the test insects.
The test compounds were formulated by diluting the stock suspension with water to give a suspension containing 500 parts of test compound per million parts of final formulation. Potted Tendergreen bean plants of standard height and age were placed on a revolving turntable and sprayed with 100-110 milliliters of test comound formulation by use of a DeVilbiss spray gun set at 10 psig air pressure. This application, which lasted 25 seconds, was sufficient to wet plants to run-off. As a control, 100-110 milliliters of a water-acetone-emulsifier solution containing no test compound were also sprayed on infested plants. When dry, the paired leaves were separated and each was placed in a 9 centimeter Petri dish lined with moistened filter paper. Five randomly selected larvae were introduced into each dish, and the dishes were closed. The closed dishes were labeled and held at a temperature of 80°±5° F, for 3 days. Although the larvae could easily consume the leaf within 24 to 48 hours, no more food was added. Larvae which were unable to move the length of the body, even upon stimulation, were considered dead.

Experiment [2] concerns bean aphid (Aphis fabae Scop.). Kind of experiment: Bean Aphid Foliage Spray Test. The note with it: foliar, 24 hour holding period, read-out: Insect LD50, Aphid. How it is done:
as §1
Bean Aphid Foliage Spray Test
Adults and nymphal stages of the bean aphid (Aphis fabae Scop.) reared on potted dwarf nasturtium plants at 65°-70° F. and 50-70 per cent relative humidity, constituted the test insects. For testing purposes, the number of aphids per pot was standardized to 100-150 by trimming plants containing excess aphids.
The test compounds were formulated by diluting the stock suspension with water to give a suspension containing 500 parts of test compound per million parts of final formulation.
The potted plants (one pot per compound tested) infested with 100-150 aphids, were placed on a revolving turntable and sprayed with 100 -110 milliliters of test compound formulation by use of a DeVilbiss spray gun set at 40 psig. air pressure. This application, which lasted 25 seconds, was sufficient to wet the plants to run-off. As a control, 100-110 milliliters of a water-acetone-emulsifier solution containing no test compound were also sprayed on infested plants. After spraying, the pots were placed on their sides on a sheet of white standard mimeograph paper which had peen previously ruled to facilitate counting. Temperature and humidity in the test room during the 24 hour holding period were 65°-70° F. and 50-70 per cent, respectively. Aphids which fell onto the paper and were unable to remain standing after being uprighted were considered dead. Aphids remaining on the plants were observed closely for movement and those which were unable to move the length of the body upon stimulation by prodding were considered dead. Per cent mortality was recorded for various concentration levels.

Experiment [3] has as its system house flies (Musca domestica, L.). The experiment is described as follows: Fly Bait Test. The note with it: Musca domestica, 24 hours, read-out: Insect LD50, Housefly. The method, then:
as §1
Four to six day old adult house flies (Musca domestica, L.), reared according to the specifications of the Chemical Specialities Manufacturing Association (Blue Book, McNair-Dorland Co., N.Y. 1954; pages 243-244, 261) under controlled conditions of 80°±5° F. and 50±5 per cent relative humidity, were the test insects. The flies were immobilized by anesthetizing with carbon dioxide and twenty five immobilized individuals, males and females, were transferred to a cage consisting of a standard food strainer about five inches in diameter which was inverted over a wrapping-paper covered surface. The test compounds were formulated by diluting the stock suspension with a 10 per cent (by weight) sugar solution to give a suspension containing 500 parts of test compound per million parts of final formulation, by weight. Ten milliliters of the test formulation were added to a souffle cup containing a 1-inch square of an absorbent cotton pad. This bait cup was introduced and centered on the blotting paper under the food strainer prior to admitting the anesthetized flies. The caged flies were allowed to feed on the bait for 24 hours, at a temperature of 80°±5° F. and the relative humidity of 50±5 per cent.
(§2) In Table 1 are presented insect and rat toxicity data (bait tests) on a comparative basis of the compounds described above. […] Rat toxicity is also more meaningfully compared on the basis of molar weight LD50 values. The relative efficacy of the parent compounds as compared to the previously known derivatives and as compared to the new compounds of this invention is also shown in Table 1. The ratio of efficacy as contact poisons (immersion/bait) of the compounds tested against Armyworm and House Fly is presented in Table 2 along with the results of the phytotoxicity tests of the compounds on bean, corn, tomato and cotton.

The test system of experiment [4] is southern armyworm (Spodoptera eridania, (Cram.)). Kind of experiment: Southern Armyworm Leaf Spray Bait Test. The method, then: as §1
Southern Armyworm Leaf Spray Bait Test
Larvae of the southern armyworm (Spodoptera eridania, (Cram.)), reared on Tendergreen bean plants at a temperature of 80°±5° F. and a relative humidity of 50±5 per cent, constituted the test insects.
The test compounds were formulated by diluting the stock suspension with water to give a suspension containing 500 parts of test compound per million parts of final formulation. Potted Tendergreen bean plants of standard height and age were placed on a revolving turntable and sprayed with 100-110 milliliters of test compound formulation by use of a DeVilbiss spray gun set at 10 psig air pressure. This application, which lasted 25 seconds, was sufficient to wet plants to run-off. As a control, 100-110 milliliters of a water-acetone-emulsifier solution containing no test compound were also sprayed on infested plants. When dry, the paired leaves were separated and each one was placed in a 9 centimeter Petri dish lined with moistened filter paper. Five randomly selected larvae were introduced into each dish and the dishes were closed. The closed dishes were labeled and held at 80°-85° F. for 3 days. Although the larvae could easily consume the whole leaf within 24 hours, no more food was added. Larvae which were unable to move the length of the body, even upon stimulation by prodding, were considered dead. Per cent mortality was recorded for various concentration levels.
as §2

Experiment [5] deals with two-spotted mite (Tetranychus urticae Koch). The experiment is described as follows: Mite Foliage Spray Test. Particulars: foliar, 144 h, 6 days, read-out: Insect LD50, Mite. How it is done:
as §1
Adults and nymphal stage of the two-spotted mite (Tetranychus urticae Koch), reared on Tendergreen bean plants at 80±5 per cent relative humidity, were the test organisms. Infested leaves from a stock culture were placed on the primary leaves of two bean plants 6 to 8 inches in height, growing in a 21/2 inch clay pot. 150-200 Mites, a sufficient number for testing, transferred from the excised leaves to the fresh plants in a period of twenty four hours. Following the twenty four hour transfer period, the excised leaves were removed from the infested plants. The test compounds were formulated by diluting the stock suspension with water to give a suspension containing 500 parts of test compound per million parts of final formulation. The potted plants (one pot per compound) were placed on a revolving turntable and sprayed with 100-110 milliliters of test compound formulation by use of a DeVilbiss spray gun set at 40 psig. air pressure. This application, which lasted 25 seconds, was sufficient to wet the plants to run-off. As a control, 100-110 milliliters of a water solution containing acetone and emulsifier in the same concentrations as the test compound formulation, but containing no test compound, were also sprayed on infested plants. The sprayed plants were held at 80±5 per cent relative humidity for 6 days, after which a mortality count of motile forms was made. Microscopic examination for motile forms was made on the leaves of the test plants. Any individual which was capable of locomotion upon prodding was considered living.

For `CCSC(C)=NOC(=O)N(C)Sc1ccc(C(C)(C)C)cc1` [Compound 10], the LC50 was 20 µg/mL (≈ 58.7 µM) in experiment [1]; 5 µg/mL (≈ 14.7 µM) in experiment [2]; 13 µg/mL (≈ 38.2 µM) in experiment [3]; 14 µg/mL (≈ 41.1 µM) in experiment [4] (Spodoptera eridania, 72 h, leaf spray bait, 3 days, read-out: Insect LD50, Armyworm); greater than 500 µg/mL in experiment [5]. In experiment [4] (bait, formula of footnote b is drawing 8), the “(b) relative efficacy of derivative vs parent compound, Armyworm” value was found to be 1.52.

The values above are taken from patent US3998963A, “Tertiary butyl substituted carbamoyl oxime pesticides” (priority 1975, dated 1976).
